From US11453660B2, “Androgen receptor and glucocorticoid receptor modulators” (ONCOSTELLAE, S.L., priority 2017, dated 2022)
pIC50: −log10 of the molar value.

Target: T1, Human Glucocorticoid Receptor (Homo sapiens, UniProt P04150)
T1 construct: endogenous in cells; host or cells: cytosol from IM-9 cell line
T1 sequence (P04150 1-777): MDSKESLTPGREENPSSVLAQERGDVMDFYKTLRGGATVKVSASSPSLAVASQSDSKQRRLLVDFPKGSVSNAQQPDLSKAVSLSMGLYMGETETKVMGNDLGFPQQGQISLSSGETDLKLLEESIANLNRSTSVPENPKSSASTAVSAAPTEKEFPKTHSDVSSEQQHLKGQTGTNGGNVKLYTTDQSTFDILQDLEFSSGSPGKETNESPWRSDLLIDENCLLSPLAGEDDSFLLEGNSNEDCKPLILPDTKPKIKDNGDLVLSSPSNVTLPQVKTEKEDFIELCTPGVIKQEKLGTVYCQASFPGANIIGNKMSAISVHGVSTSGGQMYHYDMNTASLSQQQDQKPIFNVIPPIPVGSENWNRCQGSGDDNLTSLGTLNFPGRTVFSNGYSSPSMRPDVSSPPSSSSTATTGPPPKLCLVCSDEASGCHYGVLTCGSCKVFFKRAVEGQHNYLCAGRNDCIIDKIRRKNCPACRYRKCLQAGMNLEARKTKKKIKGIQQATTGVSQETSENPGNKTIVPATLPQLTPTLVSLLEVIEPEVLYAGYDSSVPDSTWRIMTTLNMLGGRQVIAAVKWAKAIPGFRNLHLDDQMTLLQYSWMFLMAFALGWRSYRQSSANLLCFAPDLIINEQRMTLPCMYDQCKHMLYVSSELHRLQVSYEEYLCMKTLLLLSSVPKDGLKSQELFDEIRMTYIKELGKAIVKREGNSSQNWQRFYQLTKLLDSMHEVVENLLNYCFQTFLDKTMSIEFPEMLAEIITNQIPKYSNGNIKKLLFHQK
Assay: Competition Binding in IM-9 Human Glucocorticoid Receptor (GR IM-9)
Conditions: cytosol from IM-9 cell line, 1.5 nM [3H]-Dexamethasone, 4° C. for 6 hours
Method: Competition Binding in IM-9 Human Glucocorticoid Receptor (GR IM-9)
Glucocorticoid receptor competition binding assays were carried out in a polypropilene 96-well plate. In each well was incubated 100 μg of cytosol from IM-9 cell line, 1.5 nM [3H]-Dexamethasone (71 Ci/mmol, 1 mCi/ml, Perkin Elmer NET1192001MC) and compounds studied and standard. Non-specific binding was determined in the presence of Triamcinolone 10 μM (Sigma Aldrich T6376).
The reaction mixture (Vt: 200 μl/well) was incubated at 4° C. for 6 hours, 180 μL was transferred to GF/B 96-well plate (Millipore, Madrid, Spain) pretreated with 0.5% of PEI and treated with binding buffer (TES 10 mM, sodium molybdate 10 mM, EDTA 1 mM, pH 7.4, 2-mercaptoethanol 20 mM, Glycerol 10%) after was filtered and washed six times with 250 μl wash buffer (TES 10 mM, sodium molybdate 10 mM, EDTA 1 mM, pH 7.4, 2-mercaptoethanol 20 mM Glycerol 10%), before measuring in a microplate beta scintillation counter (Microbeta Trilux, PerkinElmer, Madrid, Spain).

| SMILES | pIC50 |
| --- | --- |
| CC(=O)C1=C(C)NC(C2CC2)=C(C(=O)OCc2cccc(Cl)c2)C1c1csc2ncccc12 (stereo not drawn) [Example C94, 3-chlorobenzyl 5-acetyl-2-cyclopropyl-6-methyl-4-(thieno[2,3-b]pyridin-3-yl)-1,4-dihydropyridine-3-carboxylate] | > 7.00 |
| COC(=O)C1=C(C2CC2)NC(C2CC2)=C(C(=O)OCC2CC2)C1c1csc2c(C#N)cccc12 (stereo not drawn) [Example C110, 3-(cyclopropylmethyl) 5-methyl 4-(7-cyanobenzo[b]thiophen-3-yl)-2,6-dicyclopropyl-1,4-dihydropyridine-3,5-dicarboxylate] | > 7.00 |
| COC(=O)C1=C(N)NC(C2CC2)=C(C(=O)OC)C1c1csc2c(C#N)cccc12 (stereo not drawn) [Example D18, Dimethyl 2-amino-4-(7-cyanobenzo[b]thiophen-3-yl)-6-cyclopropyl-1,4-dihydropyridine-3,5-dicarboxylate] | > 7.00 |
| CC(=O)C1=C(C)NC(N)=C(C(=O)OC2CCC(F)(F)CC2)C1c1csc2c(C#N)cccc12 (stereo not drawn) [Example D11, 4,4-difluorocyclohexyl 5-acetyl-2-amino-4-(7-cyanobenzo[b]thiophen-3-yl)-6-methyl-1,4-dihydropyridine-3-carboxylate] | > 7.00 |
| CC(=O)C1=C(C)NC(C2CC2)=C(C(=O)OC2CCCCC2)C1c1csc2ncccc12 (stereo not drawn) [Example C91, Cyclohexyl 5-acetyl-2-cyclopropyl-6-methyl-4-(thieno[2,3-b]pyridin-3-yl)-1,4-dihydropyridine-3-carboxylate] | > 7.00 |
| COC(=O)C1=C(COCCN)NC(C)=C(C(C)=O)C1c1csc2ccccc12 (stereo not drawn) [Example C114, Methyl 5-acetyl-2-((2-aminoethoxy)methyl)-4-(benzo[b]thiophen-3-yl)-6-methyl-1,4-dihydropyridine-3-carboxylate] | ≤ 6.00 |
| C#CCOC(=O)C1=C(N)NC(C)=C(C(=O)OC)C1c1csc2c(C#N)cccc12 (stereo not drawn) [Example D55, 5-Methyl 3-prop-2-yn-1-yl 2-amino-4-(7-cyanobenzo[b]thiophen-3-yl)-6-methyl-1,4-dihydropyridine-3,5-dicarboxylate] | > 7.00 |
| COC(=O)C1=C(COCCN)NC(C)=C(C(C)=O)C1c1csc2c(C#N)cccc12 (stereo not drawn) [Example C116, Methyl 5-acetyl-2-((2-aminoethoxy)methyl)-4-(7-cyanobenzo[b]thiophen-3-yl)-6-methyl-1,4-dihydropyridine-3-carboxylate] | 6.00 to 7.00 |
| O=C(OCc1ccc(F)cc1)C1=C(C2CC2)NC(C2CC2)=C(C(=O)OCc2ccc(F)cc2)C1c1csc2ncccc12 [Example J42-a, bis(4-fluorobenzyl) 2,6-dicyclopropyl-4-(thieno[2,3-b]pyridin-3-yl)-1,4-dihydropyridine-3,5-dicarboxylate] | 6.00 to 7.00 |
| COC(=O)C1=C(N)NC(N)=C(C(=O)OC)C1c1csc2c(C#N)cccc12 [Example D20, dimethyl 2,6-diamino-4-(7-cyanobenzo[b]thiophen-3-yl)-1,4-dihydropyridine-3,5-dicarboxylate] | 6.00 to 7.00 |
| CC(=O)C1=C(C)NC(C2CC2)=C(C(=O)OC(C)(C)c2ccccc2)C1c1csc2ncccc12 (stereo not drawn) [Example C92, 2-phenylpropan-2-yl 5-acetyl-2-cyclopropyl-6-methyl-4-(thieno[2,3-b]pyridin-3-yl)-1,4-dihydropyridine-3-carboxylate] | > 7.00 |
| CC(=O)C1=C(C)NC(N)=C(C(=O)OC2CCCC2)C1c1csc2c(C#N)cccc12 (stereo not drawn) [Example D8, Cyclopentyl 5-acetyl-2-amino-4-(7-cyanobenzo[b]thiophen-3-yl)-6-methyl-1,4-dihydropyridine-3-carboxylate] | > 7.00 |
| COC(=O)C1=C(C2CC2)NC(C)=C(C#N)C1c1csc2c(C#N)cccc12 (stereo not drawn) [Example C104, Methyl 5-cyano-4-(7-cyanobenzo[b]thiophen-3-yl)-2-cyclopropyl-6-methyl-1,4-dihydropyridine-3-carboxylate] | > 7.00 |
| CC(=O)C1=C(C)NC(C2CC2)=C(C(=O)OC(C)(C)c2ccc(F)cc2)C1c1csc2c(Br)cccc12 (stereo not drawn) [Example C96, 2-(4-fluorophenyl)propan-2-yl 5-acetyl-4-(7-bromobenzo[b]thiophen-3-yl)-2-cyclopropyl-6-methyl-1,4-dihydropyridine-3-carboxylate] | 6.00 to 7.00 |
| COC(=O)C1=C(C)NC(N)=C(C(=O)OCC2CC2)C1c1csc2c(C#N)ccnc12 (stereo not drawn) [Example D44, 3-(Cyclopropylmethyl) 5-methyl 2-amino-4-(7-cyanothieno[3,2-b]pyridin-3-yl)-6-methyl-1,4-dihydropyridine-3,5-dicarboxylate] | > 7.00 |
| COC(=O)C1=C(C(F)(F)F)NC(C)=C(C(C)=O)C1c1csc2c(Br)cccc12 (stereo not drawn) [Example C83, Methyl 5-acetyl-4-(7-bromobenzo[b]thiophen-3-yl)-6-methyl-2-(trifluoromethyl)-1,4-dihydropyridine-3-carboxylate] | 6.00 to 7.00 |
| COC(=O)C1=C(C)NC(N)=C(C(=O)OCC(C)(C)F)C1c1csc2c(C#N)cccc12 (stereo not drawn) [Example D53, 3-(2-Fluoro-2-methylpropyl) 5-methyl 2-amino-4-(7-cyanobenzo[b]thiophen-3-yl)-6-methyl-1,4-dihydropyridine-3,5-dicarboxylate] | > 7.00 |
| CC(=O)C1=C(C)NC(C2CC2)=C(C(=O)OCC2CC2)C1c1csc2ncccc12 (stereo not drawn) [Example C99, Cyclopropylmethyl 5-acetyl-2-cyclopropyl-6-methyl-4-(thieno[2,3-b]pyridin-3-yl)-1,4-dihydropyridine-3-carboxylate] | 6.00 to 7.00 |
| CC(=O)C1=C(C)NC(N)=C(C(=O)OCC2CC2)C1c1csc2cc(C#N)ccc12 (stereo not drawn) [Example D28, Cyclopropylmethyl 5-acetyl-2-amino-4-(6-cyanobenzo[b]thiophen-3-yl)-6-methyl-1,4-dihydropyridine-3-carboxylate] | 6.00 to 7.00 |
| CC1=C(C(=O)OCC(F)(F)F)C(c2csc3c(C#N)cccc23)C(C(=O)OCC2CC2)=C(N)N1 (stereo not drawn) [Example D51, 3-(Cyclopropylmethyl) 5-(2,2,2-trifluoroethyl) 2-amino-4-(7-cyanobenzo[b]thiophen-3-yl)-6-methyl-1,4-dihydropyridine-3,5-dicarboxylate] | > 7.00 |
| COC(=O)C1=C(C2CC2)NC(C2CC2)=C(C(=O)OC)C1c1csc2ccc(Cl)cc12 [Example J25-a, Dimethyl 4-(5-chlorobenzo[b]thiophen-3-yl)-2,6-dicyclopropyl-1,4-dihydropyridine-3,5-dicarboxylate] | 6.00 to 7.00 |
| COC(=O)C1=C(N)NC(C)=C(C(C)=O)C1c1csc2ncc(F)cc12 (stereo not drawn) [Example D14, Methyl 5-acetyl-2-amino-4-(5-fluorothieno[2,3-b]pyridin-3-yl)-6-methyl-1,4-dihydropyridine-3-carboxylate] | ≤ 6.00 |
| COC(=O)C1=C(C2CCCCC2)NC(C)=C(C(C)=O)C1c1csc2c(Br)cccc12 (stereo not drawn) [Example C106, Methyl 5-acetyl-4-(7-bromobenzo[b]thiophen-3-yl)-2-cyclohexyl-6-methyl-1,4-dihydropyridine-3-carboxylate] | 6.00 to 7.00 |
| COC(=O)C1=C(C2CC2)NC(C)=C(C(C)=O)C1c1csc2c(-c3ccccc3)cccc12 (stereo not drawn) [Example N1, Methyl 5-acetyl-2-cyclopropyl-6-methyl-4-(7-phenylbenzo[b]thiophen-3-yl)-1,4-dihydropyridine-3-carboxylate] | ≤ 6.00 |
| COC(=O)C1=C(C)NC(N)=C(C(=O)OCC2CC2)C1c1csc2c(C#N)cc(C#N)cc12 (stereo not drawn) [Example D48, 3-(Cyclopropylmethyl) 5-methyl 2-amino-4-(5,7-dicyanobenzo[b]thiophen-3-yl)-6-methyl-1,4-dihydropyridine-3,5-dicarboxylate] | > 7.00 |
| CC(=O)C1=C(C)NC(C)=C(C(=O)OC(C)(C)c2ccc(F)cc2)C1c1csc2ncccc12 (stereo not drawn) [Example C95, 2-(4-fluorophenyl)propan-2-yl 5-acetyl-2,6-dimethyl-4-(thieno[2,3-b]pyridin-3-yl)-1,4-dihydropyridine-3-carboxylate] | > 7.00 |
| COC(=O)C1=C(C)NC(N)=C(C(=O)OCC2CC2)C1c1csc2c(C#N)c(Cl)ccc12 (stereo not drawn) [Example D52, 3-(Cyclopropylmethyl) 5-methyl 2-amino-4-(6-chloro-7-cyanobenzo[b]thiophen-3-yl)-6-methyl-1,4-dihydropyridine-3,5-dicarboxylate] | > 7.00 |
